Data published in patent US10645928B2, “Pesticidally active polycyclic derivatives with sulfur containing substituents” (Syngenta Participations AG, priority 2014, dated 2020).

Tests used:
Assay type in all cases: in vivo
[1] = tested on: Plutella xylostella (Diamond Back Moth); experiment: Example B12: Plutella xylostella, treated artificial diet, mortality; conditions: 120 h, application rate of 200 ppm, L2 larvae, 5 days after infestation
Description: 24-well microtiter plates with artificial diet were treated with aqueous test solutions prepared from 10,000 ppm DMSO stock solutions by pipetting. After drying, the plates were infested with L2 larvae (10 to 15 per well). The samples were assessed for mortality 5 days after infestation.

[2] = tested on: Spodoptera littoralis (Egyptian Cotton Leaf Worm); experiment: Example B19: Spodoptera littoralis, compound in agar absorbed by lettuce roots, anti-feedant effect; conditions: 144 h, test rate of 12.5 ppm, uptake by lettuce roots, Spodoptera eggs, 6 days after infestation, read-out: anti-feeding
Description: (§1) Test compounds were applied by pipette prepared from 10,000 ppm DMSO stock solutions into 24-well plates and mixed with agar. Lettuce seeds were placed onto the agar and the multi well plate was closed by another plate which contained also agar. After 7 days the compound was absorbed by the roots and the lettuce grew into the lid plate. The lettuce leaves were then cut off into the lid plate. Spodoptera eggs were pipetted through a plastic stencil onto a humid gel blotting paper and the lid plate was closed with it. The samples were assessed for anti-feedant effect in comparison to untreated samples 6 days after infestation.

[3] = tested on: Bemisia tabaci (Cotton White Fly); experiment: Example B1: Bemisia tabaci, sprayed cotton leaf discs, mortality; conditions: foliar, 144 h, application rate of 200 ppm, adult white flies, 6 days after incubation
Description: Cotton leaf discs were placed on agar in 24-well microtiter plates and sprayed with aqueous test solutions prepared from 10,000 ppm DMSO stock solutions. After drying the leaf discs were infested with adult white flies. The samples were checked for mortality 6 days after incubation.

[4] = tested on: Spodoptera littoralis (Egyptian Cotton Leaf Worm); experiment: Example B16: Spodoptera littoralis, sprayed cotton leaf discs, mortality; conditions: foliar, 72 h, application rate of 200 ppm, L1 larvae, 3 days after infestation
Description: Cotton leaf discs were placed onto agar in 24-well microtiter plates and sprayed with aqueous test solutions prepared from 10,000 ppm DMSO stock solutions. After drying the leaf discs were infested with five L1 larvae. The samples were assessed for mortality 3 days after infestation.

[5] = tested on: Diabrotica balteata (Corn Root Worm); experiment: Example B2: Diabrotica balteata, sprayed maize sprouts, mortality and growth inhibition; conditions: 96 h, application rate of 200 ppm, L2 larvae, 4 days after infestation, read-out: effect in at least one of the two categories (mortality or growth inhibition)
Description: Maize sprouts placed onto an agar layer in 24-well microtiter plates were treated with aqueous test solutions prepared from 10,000 ppm DMSO stock solutions by spraying. After drying, the plates were infested with L2 larvae (6 to 10 per well). The samples were assessed for mortality and growth inhibition in comparison to untreated samples 4 days after infestation.

[6] = tested on: Spodoptera littoralis (Egyptian Cotton Leaf Worm); experiment: Example B20: Spodoptera littoralis, compound in agar absorbed by lettuce roots, mortality; conditions: 144 h, test rate of 12.5 ppm, uptake by lettuce roots, Spodoptera eggs, 6 days after infestation
Description: Test compounds were applied by pipette prepared from 10,000 ppm DMSO stock solutions into 24-well plates and mixed with agar. Lettuce seeds were placed onto the agar and the multi well plate was closed by another plate which contained also agar. After 7 days the compound was absorbed by the roots and the lettuce grew into the lid plate. The lettuce leaves were then cut off into the lid plate.
Spodoptera eggs were pipetted through a plastic stencil onto a humid gel blotting paper and the lid plate was closed with it. The samples were assessed for mortality 6 days after infestation.

[7] = tested on: Spodoptera littoralis (Egyptian Cotton Leaf Worm); experiment: Example B17: Spodoptera littoralis, sprayed cotton leaf discs, mortality, anti-feeding effect and growth inhibition; conditions: foliar, 72 h, application rate of 200 ppm, L1 larvae, 3 days after infestation, read-out: control (at least one of mortality, anti-feedant effect, growth inhibition)
Description: Cotton leaf discs were placed onto agar in 24-well microtiter plates and sprayed with aqueous test solutions prepared from 10,000 ppm DMSO stock solutions. After drying the leaf discs were infested with five L1 larvae. The samples were assessed for mortality, anti-feeding effect, and growth inhibition in comparison to untreated samples 3 days after infestation. Control of Spodoptera littoralis by a test sample is given when at least one of the categories mortality, anti-feedant effect, and growth inhibition is higher than the untreated sample.

[8] = tested on: Spodoptera littoralis (Egyptian Cotton Leaf Worm); experiment: Example B14: Spodoptera littoralis, sprayed cotton leaf discs, anti-feeding effect; conditions: foliar, 72 h, application rate of 200 ppm, L1 larvae, 3 days after infestation
Description: Cotton leaf discs were placed onto agar in 24-well microtiter plates and sprayed with aqueous test solutions prepared from 10,000 ppm DMSO stock solutions. After drying the leaf discs were infested with five L1 larvae. The samples were assessed for anti-feeding effect in comparison to untreated samples 3 days after infestation. Control of Spodoptera littoralis by a test sample is given when the anti-feedant effect is higher than the untreated sample.

[9] = tested on: Euschistus heros (Neotropical Brown Stink Bug); experiment: Example B6: Euschistus heros, sprayed soybean leaves, mortality and growth inhibition; conditions: 120 h, application rate of 200 ppm, N2 nymphs, 5 days after infestation, read-out: effect in at least one of the two categories (mortality or growth inhibition)
Description: Soybean leaves on agar in 24-well microtiter plates were sprayed with aqueous test solutions prepared from 10,000 ppm DMSO stock solutions. After drying the leaves were infested with N2 nymphs. The samples were assessed for mortality and growth inhibition in comparison to untreated samples 5 days after infestation.

[10] = tested on: Aedes aegypti (Yellow Fever Mosquito); experiment: Example B23: Aedes aegypti, dry deposits in 12 well tissue culture plates, control; conditions: application rate of 200 ppm in ethanol, adult females, after 48 h and/or 24 h
Description: Test solutions, at an application rate of 200 ppm in ethanol, were applied to 12 well tissue culture plates. Once the deposits were dry, five, two to five day old adult female Aedes aegypti were added to each well, and sustained with a 10% sucrose solution in a cotton wool plug. Assessment of knockdown was made one hour after introduction, and mortality was assessed at 24 and 48 hours after introduction.

[11] = tested on: Diabrotica balteata (Corn Root Worm); experiment: Example B3: Diabrotica balteata, sprayed maize sprouts, mortality; conditions: 96 h, application rate of 200 ppm, L2 larvae, 4 days after infestation
Description: Maize sprouts placed onto an agar layer in 24-well microtiter plates were treated with aqueous test solutions prepared from 10,000 ppm DMSO stock solutions by spraying. After drying, the plates were infested with L2 larvae (6 to 10 per well). The samples were assessed for mortality 4 days after infestation.

[12] = tested on: Euschistus heros (Neotropical Brown Stink Bug); experiment: Example B5: Euschistus heros, sprayed soybean leaves, mortality; conditions: 120 h, application rate of 200 ppm, N2 nymphs, 5 days after infestation
Description: Soybean leaves on agar in 24-well microtiter plates were sprayed with aqueous test solutions prepared from 10,000 ppm DMSO stock solutions. After drying the leaves were infested with N2 nymphs. The samples were assessed for mortality 5 days after infestation.

[13] = tested on: Plutella xylostella (Diamond Back Moth); experiment: Example B13: Plutella xylostella, treated artificial diet, mortality and growth inhibition; conditions: 120 h, application rate of 200 ppm, L2 larvae, 5 days after infestation, read-out: effect in at least one of the two categories (mortality or growth inhibition)
Description: 24-well microtiter plates with artificial diet were treated with aqueous test solutions prepared from 10,000 ppm DMSO stock solutions by pipetting. After drying, the plates were infested with L2 larvae (10 to 15 per well). The samples were assessed for mortality and growth inhibition in comparison to untreated samples 5 days after infestation.

[14] = tested on: Spodoptera littoralis (Egyptian Cotton Leaf Worm); experiment: Example B18: Spodoptera littoralis, compound in agar absorbed by lettuce roots, mortality, anti-feedant effect and growth inhibition; conditions: 144 h, test rate of 12.5 ppm, uptake by lettuce roots, Spodoptera eggs, 6 days after infestation, read-out: effect in at least one of the three categories (mortality, anti-feeding, or growth inhibition)
Description: as §1, with “pipette” for “pipette prepared”, “for mortality,” for “for”, “effect and growth inhibition” for “effect”

[15] = tested on: Spodoptera littoralis (Egyptian Cotton Leaf Worm); experiment: Example B15: Spodoptera littoralis, sprayed cotton leaf discs, growth inhibition; conditions: foliar, 72 h, application rate of 200 ppm, L1 larvae, 3 days after infestation, read-out: control (growth inhibition)
Description: Cotton leaf discs were placed onto agar in 24-well microtiter plates and sprayed with aqueous test solutions prepared from 10,000 ppm DMSO stock solutions. After drying the leaf discs were infested with five L1 larvae. The samples were assessed for growth inhibition in comparison to untreated samples 3 days after infestation. Control of Spodoptera littoralis by a test sample is given when the growth inhibition is higher than the untreated sample.

[16] = tested on: Plutella xylostella (Diamond Back Moth); experiment: Example B10: Plutella xylostella, treated artificial diet, growth inhibition; conditions: 120 h, application rate of 200 ppm, L2 larvae, 5 days after infestation
Description: 24-well microtiter plates with artificial diet were treated with aqueous test solutions prepared from 10,000 ppm DMSO stock solutions by pipetting. After drying, the plates were infested with L2 larvae (10 to 15 per well). The samples were assessed for growth inhibition in comparison to untreated samples 5 days after infestation. Control of Plutella xylostella by a test sample is given when the growth inhibition is higher than the untreated sample.

[17] = tested on: Frankliniella occidentalis (Western Flower Thrips); experiment: Example B7: Frankliniella occidentalis, sprayed sunflower leaf discs, mortality; conditions: foliar, 168 h, application rate of 200 ppm, population of mixed ages, 7 days after infestation
Description: Sunflower leaf discs were placed on agar in 24-well microtiter plates and sprayed with aqueous test solutions prepared from 10,000 DMSO stock solutions. After drying the leaf discs were infested with a Frankliniella population of mixed ages. The samples were assessed for mortality 7 days after infestation.

[18] = tested on: Myzus persicae (Green Peach Aphid); experiment: Example B8: Myzus persicae, sprayed sunflower leaf discs, mortality; conditions: foliar, 144 h, application rate of 200 ppm, leaf disc spray, aphid population of mixed ages, 6 days after infestation
Description: Sunflower leaf discs were placed onto agar in a 24-well microtiter plate and sprayed with aqueous test solutions prepared from 10,000 ppm DMSO stock solutions. After drying, the leaf discs were infested with an aphid population of mixed ages. The samples were assessed for mortality 6 days after infestation.

CCS(=O)(=O)c1cc(-n2ccc(C(F)(F)F)n2)cnc1-c1cn2cnc(C(F)(F)F)cc2n1 [Compound P4, 2-[3-ethylsulfonyl-5-[3-(trifluoromethyl)pyrazol-1-yl]-2-pyridyl]-7-(trifluoromethyl)imidazo[1,2-c]pyrimidine]
≥ 80%: mortality at 200 ppm [1] | pest or weed control at 12.5 ppm [2] | mortality at 200 ppm [3] | mortality at 200 ppm [4] | percent effect (mortality or growth inhibition) at 200 ppm [5] | mortality at 12.5 ppm [6] | percent control (mortality, anti-feedant effect or growth inhibition) at 200 ppm [7] | pest or weed control at 200 ppm [8] | percent effect (mortality or growth inhibition) at 200 ppm [9] | pest or weed control at 200 ppm [10] | mortality at 200 ppm [11] | mortality at 200 ppm [12] | percent effect (mortality or growth inhibition) at 200 ppm [13] | percent effect (mortality, anti-feeding or growth inhibition) at 12.5 ppm [14]

CCS(=O)(=O)c1cc(-c2cccc(SC)c2)cnc1-c1cn2cnc(C(F)(F)F)cc2n1 [Compound P9]
≥ 80%: mortality at 200 ppm [1] | mortality at 200 ppm [4] | percent effect (mortality or growth inhibition) at 200 ppm [5] | percent control (mortality, anti-feedant effect or growth inhibition) at 200 ppm [7] | inhibition at 200 ppm [15] | pest or weed control at 200 ppm [8] | percent effect (mortality or growth inhibition) at 200 ppm [9] | pest or weed control at 200 ppm [10] | inhibition at 200 ppm [16] | mortality at 200 ppm [11] | mortality at 200 ppm [12] | percent effect (mortality or growth inhibition) at 200 ppm [13]

CCS(=O)(=O)c1cc(-c2ccc(F)cc2F)cnc1-c1cn2cnc(C(F)(F)F)cc2n1 [Compound P11]
≥ 80%: mortality at 200 ppm [1] | pest or weed control at 12.5 ppm [2] | mortality at 200 ppm [4] | percent effect (mortality or growth inhibition) at 200 ppm [5] | mortality at 12.5 ppm [6] | percent control (mortality, anti-feedant effect or growth inhibition) at 200 ppm [7] | pest or weed control at 200 ppm [8] | percent effect (mortality or growth inhibition) at 200 ppm [9] | mortality at 200 ppm [11] | mortality at 200 ppm [17] | mortality at 200 ppm [12] | percent effect (mortality or growth inhibition) at 200 ppm [13] | mortality at 200 ppm [18] | percent effect (mortality, anti-feeding or growth inhibition) at 12.5 ppm [14]

CCS(=O)(=O)c1cc(-c2ccc(Cl)cc2)cnc1-c1cn2cnc(C(F)(F)C(F)(F)F)cc2n1 [Compound P15]
≥ 80%: mortality at 200 ppm [1] | pest or weed control at 12.5 ppm [2] | mortality at 200 ppm [3] | mortality at 200 ppm [4] | percent effect (mortality or growth inhibition) at 200 ppm [5] | mortality at 12.5 ppm [6] | percent control (mortality, anti-feedant effect or growth inhibition) at 200 ppm [7] | pest or weed control at 200 ppm [8] | percent effect (mortality or growth inhibition) at 200 ppm [9] | mortality at 200 ppm [17] | mortality at 200 ppm [12] | percent effect (mortality or growth inhibition) at 200 ppm [13] | percent effect (mortality, anti-feeding or growth inhibition) at 12.5 ppm [14]
